For 11 compounds, Ki results are on record in patent US20150175655A1 (priority 2012, published 2015).

One experiment concerns the target T1, NS3 genotype 3a protease (UniProt Q81258).
T1 construct: Purified NS3 protease domain (amino acids 1-181) of the genotype 1b and 3a virus were generated as above; fused on or other part: N-terminal hexahistidine tag and rTEV protease cleavage site (vector p28-N6H-Tev-NS3(181)3)
T1 sequence (Q81258 1033-1663): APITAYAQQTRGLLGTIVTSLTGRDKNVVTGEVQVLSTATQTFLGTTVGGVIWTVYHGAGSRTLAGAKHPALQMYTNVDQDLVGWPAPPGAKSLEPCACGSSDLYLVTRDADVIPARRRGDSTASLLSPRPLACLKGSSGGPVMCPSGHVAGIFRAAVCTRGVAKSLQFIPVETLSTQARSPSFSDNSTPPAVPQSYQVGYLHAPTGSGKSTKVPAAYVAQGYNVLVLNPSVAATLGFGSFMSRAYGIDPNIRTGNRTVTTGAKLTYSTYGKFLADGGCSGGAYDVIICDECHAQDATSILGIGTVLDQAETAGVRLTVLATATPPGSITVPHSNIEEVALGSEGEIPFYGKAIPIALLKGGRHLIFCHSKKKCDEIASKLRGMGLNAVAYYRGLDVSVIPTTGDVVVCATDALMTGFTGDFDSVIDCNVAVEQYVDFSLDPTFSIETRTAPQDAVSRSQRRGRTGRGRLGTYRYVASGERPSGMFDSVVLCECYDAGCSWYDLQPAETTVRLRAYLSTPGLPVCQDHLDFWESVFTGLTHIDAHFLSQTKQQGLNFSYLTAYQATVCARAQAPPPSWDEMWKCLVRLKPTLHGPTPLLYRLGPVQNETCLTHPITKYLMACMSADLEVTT
The experiment is described as follows: Ki determination, NS3 protease genotype 3a (fluorogenic depsipeptide substrate). To be noted: 200 pM enzyme, 20 μM NS4A peptide, 2 μM substrate, read-out: Ki 3A. Type of experiment: biochemical, hepatitis C virus. In short, it runs like this: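 Refolded His-tagged NS3 protease domain (aa 1-181, genotype 3a) at 200 pM with 20 μM NS4A peptide was pre-incubated 1 h at RT with inhibitor (100 nM–5 pM, 3-fold), then 2 μM FRET depsipeptide substrate was added in HEPES/40% glycerol/10% DMSO buffer. Steady-state rates over 90-120 min (ex 340/em 490 nm) versus inhibitor concentration gave Ki.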
What is called Ki is the dissociation constant of the complex between target and ligand, obtained from inhibition or displacement. Turning to `CC[C@@H]1[C@@H]2CN(C(=O)[C@H](C(C)(C)C)NC(=O)O[C@@H]3C[C@H]3CCCCCc3nc4ccc(OC)cc4nc3O2)[C@@H]1C(=O)N[C@]1(C(=O)NS(=O)(=O)C2(C)CC2)C[C@H]1CC(F)F` [Example 67, (1aR,5S,8S,9S,10R,22aR)-5-tert-butyl-N-[(1R,2S)-2-(2,2-difluoroethyl)-1-{[(1-methylcyclopropyl)sulfonyl]carbamoyl}cyclopropyl]-9-ethyl-14-methoxy-3,6-dioxo-1,1a,3,4,5,6,9,10,18,19,20,21,22,22a-tetradecahydro-8H-7,10-methanocyclopropa[18,19][1,10,3,6]dioxadiazacyclononadecino[11,12-b]quinoxaline-8-carboxamide], the Ki was found to be 0.32 nM. On the same count and under the same terms, for `COc1ccc2nc3c(nc2c1)O[C@H]1CN(C(=O)[C@H](C(C)(C)C)NC(=O)O[C@H]2CC4CC(C4)[C@@H]2CCCCC3)[C@H](C(=O)N[C@]2(C(=O)NS(=O)(=O)C3CC3)C[C@H]2C(F)F)[C@@H]1C` [Example 72, (4aS,8S,11S,12S,13R,25aS)-8-tert-butyl-N-[(1R,2R)-1-[(cyclopropylsulfonyl)carbamoyl]-2-(difluoromethyl)cyclopropyl]-17-methoxy-12-methyl-6,9-dioxo-2,3,4,4a,6,7,8,9,12,13,21,22,23,24,25,25a-hexadecahydro-1H,11H-1,3:10,13-dimethanoquinoxalino[2,3-k][1,10,3,6]benzodioxadiazacyclononadecine-11-carboxamide] the value was 4.1 nM; for `CC[C@@H]1[C@@H]2CN(C(=O)[C@H](C(C)(C)C)NC(=O)O[C@@H]3C[C@H]3CCCCCc3nc4ccc(OC)cc4nc3O2)[C@@H]1C(=O)N[C@]1(C(=O)NS(=O)(=O)C2(C)CC2)C[C@H]1C` [Example 73, (1aR,5S,8S,9S,10R,22aR)-5-tert-butyl-9-ethyl-14-methoxy-N-[(1R,2R)-2-methyl-1-{[(1-methylcyclopropyl)sulfonyl]carbamoyl}cyclopropyl]-3,6-dioxo-1,1a,3,4,5,6,9,10,18,19,20,21,22,22a-tetradecahydro-8H-7,10-methanocyclopropa[18,19][1,10,3,6]dioxadiazacyclononadecino[11,12-b]quinoxaline-8-carboxamide], 0.82 nM. In the case of `CC[C@@H]1[C@@H]2CN(C(=O)[C@H](C(C)(C)C)NC(=O)O[C@@H]3C[C@H]3CCCCCc3nc4ccc(OC)cc4nc3O2)[C@@H]1C(=O)N[C@]1(C(=O)NS(=O)(=O)C2(F)CC2)C[C@H]1C(F)F` [Example 74, (1aR,5S,8S,9S,10R,22aR)-5-tert-butyl-N-[(1R,2R)-2-(difluoromethyl)-1-{[(1-fluorocyclopropyl)sulfonyl]carbamoyl}cyclopropyl]-9-ethyl-14-methoxy-3,6-dioxo-1,1a,3,4,5,6,9,10,18,19,20,21,22,22a-tetradecahydro-8H-7,10-methanocyclopropa[18,19][1,10,3,6]dioxadiazacyclononadecino[11,12-b]quinoxaline-8-carboxamide], the Ki amounted to 0.12 nM.

Take `CC[C@@H]1[C@@H]2CN(C(=O)[C@H](C(C)(C)C)NC(=O)O[C@@H]3C[C@H]3CCCCCc3nc4ccc(OC)cc4nc3O2)[C@@H]1C(=O)N[C@]1(C(=O)NS(=O)(=O)C2(Cl)CC2)C[C@H]1C(F)F` [Example 75, (1aR,5S,8S,9S,10R,22aR)-5-tert-butyl-N-[(1R,2R)-1-{[(1-chlorocyclopropyl)sulfonyl]carbamoyl}-2-(difluoromethyl)cyclopropyl]-9-ethyl-14-methoxy-3,6-dioxo-1,1a,3,4,5,6,9,10,18,19,20,21,22,22a-tetradecahydro-8H-7,10-methanocyclopropa[18,19][1,10,3,6]dioxadiazacyclononadecino[11,12-b]quinoxaline-8-carboxamide]: the Ki was 0.12 nM. As to `COc1ccc2nc3c(nc2c1)O[C@H]1CN(C(=O)[C@H](C(C)(C)C)NC(=O)O[C@@H]2C[C@@H]4C[C@@H]4[C@H]2CCCCC3(F)F)[C@H](C(=O)N[C@]2(C(=O)NS(=O)(=O)C3(C)CC3)C[C@H]2C(F)F)[C@@H]1C` [Example 81, (1aS,2aR,6S,9S,10S,11R,23aR,23bS)-6-tert-butyl-N-[(1R,2R)-2-(difluoromethyl)-1-{[(1-methylcyclopropyl)sulfonyl]carbamoyl}cyclopropyl]-19,19-difluoro-15-methoxy-10-methyl-4,7-dioxo-1a,2,2a,4,5,6,7,10,11,19,20,21,22,23,23a,23b-hexadecahydro-1H,9H-8,11-methanocyclopropa[4′,5′]cyclopenta[1′,2′:18,19][1,10,3,6]dioxadiazacyclononade cino[11,12-b]quinoxaline-9-carboxamide], the Ki was 0.05 nM. Regarding `C[C@@H]1[C@@H]2CN(C(=O)[C@H](C(C)(C)C)NC(=O)O[C@@H]3C[C@@H]4C[C@@H]4[C@H]3CCCCC(F)(F)c3nc4ccccc4nc3O2)[C@@H]1C(=O)N[C@]1(C(=O)NS(=O)(=O)C2(C)CC2)C[C@H]1C(F)F` [Example 82, (1aS,2aR,6S,9S,10S,11R,23aR,23bS)-6-tert-butyl-N-[(1R,2R)-2-(difluoromethyl)-1-{[(1-methylcyclopropyl)sulfonyl]carbamoyl}cyclopropyl]-19,19-difluoro-10-methyl-4,7-dioxo-1a,2,2a,4,5,6,7,10,11,19,20,21,22,23,23a,23b-hexadecahydro-1H,9H-8,11-methanocyclopropa[4′,5′]cyclopenta[1′,2′:18,19][1,10,3,6]dioxadiazacyclononade cino[11,12-b]quinoxaline-9-carboxamide], the Ki turned out to be 0.04 nM. Regarding `CC[C@@H]1[C@@H]2CN(C(=O)[C@H](C(C)(C)C)NC(=O)O[C@@H]3C[C@H]3CCCCC(F)(F)c3nc4ccc(OC(F)F)cc4nc3O2)[C@@H]1C(=O)N[C@]1(C(=O)NS(=O)(=O)C2(C)CC2)C[C@H]1C(F)F` [Example 85, (1aR,5S,8S,9S,10R,22aR)-5-tert-butyl-14-(difluoromethoxy)-N-[(1R,2R)-2-(difluoromethyl)-1-{[(1-methylcyclopropyl)sulfonyl]carbamoyl}cyclopropyl]-9-ethyl-18,18-difluoro-3,6-dioxo-1,1a,3,4,5,6,9,10,18,19,20,21,22,22a-tetradecahydro-8H-7,10-methanocyclopropa[18,19][1,10,3,6]dioxadiazacyclononadecino[11,12-b]quinoxaline-8-carboxamide], the Ki turned out to be 0.03 nM. Take `CC[C@@H]1[C@@H]2CN(C(=O)[C@H](C(C)(C)C)NC(=O)O[C@@H]3C[C@H]3CCCCC(F)(F)c3nc4ccc(C#N)cc4nc3O2)[C@@H]1C(=O)N[C@]1(C(=O)NS(=O)(=O)C2(C)CC2)C[C@H]1C(F)F` [Example 87, (1aR,5S,8S,9S,10R,22aR)-5-tert-butyl-14-cyano-N-[(1R,2R)-2-(difluoromethyl)-1-{[(1-methylcyclopropyl)sulfonyl]carbamoyl}cyclopropyl]-9-ethyl-18,18-difluoro-3,6-dioxo-1,1a,3,4,5,6,9,10,18,19,20,21,22,22a-tetradecahydro-8H-7,10-methanocyclopropa[18,19][1,10,3,6]dioxadiazacyclononadecino[11,12-b]quinoxaline-8-carboxamide]: the Ki was 0.05 nM. Still for that read-out and setting: with `CC[C@@H]1[C@@H]2CN(C(=O)[C@H](C(C)(C)C)NC(=O)O[C@@H]3C[C@H]3CCCCC(F)c3nc4ccc(OC)cc4nc3O2)[C@@H]1C(=O)N[C@]1(C(=O)NS(=O)(=O)C2(C)CC2)C[C@H]1C(F)F` (stereo partly drawn) [Example 90, (1aR,5S,8S,9S,10R,22aR)-5-tert-butyl-N-[(1R,2R)-2-(difluoromethyl)-1-{[(1-methylcyclopropyl)sulfonyl]carbamoyl}cyclopropyl]-9-ethyl-18-fluoro-14-methoxy-3,6-dioxo-1,1a,3,4,5,6,9,10,18,19,20,21,22,22a-tetradecahydro-8H-7,10-methanocyclopropa[18,19][1,10,3,6]dioxadiazacyclononadecino[11,12-b]quinoxaline-8-carboxamide] the figure was 0.13 nM.

Still in this experiment, the particulars now being: read-out: Ki 3A, 200 pM enzyme, 20 μM NS4A peptide, 2 μM substrate.
Take `CCC[C@@H]1[C@@H]2CN(C(=O)[C@H](C(C)(C)C)NC(=O)O[C@@H]3C[C@H]3CCCCC(F)(F)c3nc4ccc(OC)cc4nc3O2)[C@@H]1C(=O)N[C@]1(C(=O)NS(=O)(=O)C2(C)CC2)C[C@H]1C(F)F` [Example 65, (1aR,5S,8S,9S,10R,22aR)-5-tert-butyl-N-[(1R,2R)-2-(difluoromethyl)-1-{[(1-methylcyclopropyl)sulfonyl]carbamoyl}cyclopropyl]-18,18-difluoro-14-methoxy-3,6-dioxo-9-propyl-1,1a,3,4,5,6,9,10,18,19,20,21,22,22a-tetradecahydro-8H-7,10-methanocyclopropa[18,19][1,10,3,6]dioxadiazacyclononadecino[11,12-b]quinoxaline-8-carboxamide]: the Ki is 0.07 nM.
